In article PMC5662840, “Effect of Gelsemium elegans and Mussaenda pubescens, the Components of a Detoxification Herbal Formula, on Disturbance of the Intestinal Absorptions of Indole Alkaloids in Caco-2 Cells” (Evidence-based Complementary and Alternative Medicine : eCAM, 2017):

Experiments:
[1] = Bidirectional transport of indole alkaloids from GE and GM extracts across Caco-2 cells monolayer; assay type: in vitro ADME, Human; conditions: human; for efflux ratio at 4 h / efflux ratio: Caco-2, GM without inhibitor, read-out: efflux ratio γ (Papp BL-AP / Papp AP-BL); for Papp A→B at 4 h / Papp B→A at 4 h / Papp A→B / Papp B→A: Caco-2, GM (control group), mean ± SEM, n = 3; for Papp A→B at 4 h / Papp A→B: apical-to-basolateral; for Papp B→A at 4 h / Papp B→A: basolateral-to-apical
Procedure: (§1) Human colon adenocarcinoma cell lines (Caco-2) were obtained from the cell bank of Chinese Academy of Sciences (Beijing, China). Cells were routinely grown in DMEM supplemented with 10% (v/v) fetal bovine serum, 1% (v/v) glutamine, 1% (v/v) nonessential amino acid solution, and 100 U/mL penicillin-streptomycin solution under a humidified atmosphere of 5% CO2 at 37°C. The medium was replaced every 2 days after incubation. After reaching 80% confluence, cells were passaged at a split ratio of 1 : 5, using 0.05% trypsin-EDTA. For the transport experiments, the cells of passages were seeded at a density of 1.0 × 10^6 cells/cm^2 on permeable polycarbonate inserts in 6-well tissue culture plates (Transwell Polycarbonate Membrance Insert 3414, Corning, USA), which has a surface area of 4.2 cm^2. Culture medium was changed every two days for 14 days and daily thereafter for the next 7 days. In our culture condition, cells monolayer, after seeding approximately between 19 and 21 days, usually was available for transport experiments.
(§2) The extracts, including GE and GM, were freshly prepared to the desired final concentration in DMSO. The final concentrations of DMSO in the incubation system were controlled within 0.1% (v/v) in all subsequent experiments. All transport experiments were conducted at 37°C unless specified otherwise. Transport of indole alkaloids across the Caco-2 cells monolayer was studied using monolayer of 19–21 days after seeding. Before the experiment, the monolayer was washed twice and preincubated with the blank HBSS for 1 h. Thereafter the HBSS solution on both sides of the cells monolayer was aspirated.
(§3) Transport studies were conducted in the absorptive direction (apical- (AP-) basolateral (BL)) and the efflux direction (BL-AP), separately. For determination of AP to BL transport, 2.5 mL of sample solutions was added to the AP side, respectively, and 2.5 mL of blank HBSS was added to the BL side. For determination of BL to AP transport, 2.5 mL of sample solutions was added to the BL side, respectively, and 2.5 mL of blank HBSS was added to the AP side. The cells monolayer was then put into a shaker at 50 rpm during the transport process. 400 μL of samples was taken for LC-MS/MS analysis at 0, 1, 2, 3, and 4 h after incubation, followed by an immediate replacement of 400 μL of the same solutions. At the end of the transport experiment, integrity of the monolayer was monitored by TEER value.
(§4) 400 μL of samples obtained from the Caco-2 cells transport assays was dried under nitrogen, and the residues were dissolved in 800 μL of 50% methanol. Followed by centrifugation at 12,000 rpm for 15 min, the supernatants were directly analyzed with UPLC-ESI-MS/MS. Chromatography-mass spectrum conditions were set as described above. The method researches of LC-MS/MS were similar to those described previously. Regression equations of gelsemine, humantenidine, koumine, gelsenicine, gelsevirine, and humantenine were Y = 23675X − 2864 (r = 0.9995), Y = 66331X + 13558 (r = 0.9995), Y = 6268X − 1503 (r = 0.9996), Y = 91160X − 10147 (r = 0.9998), Y = 32116X − 3951 (r = 0.9990), and Y = 36977X + 13830 (r = 0.9994), respectively.
(§5) All experiments were run in triplicate. […] The apparent permeability coefficients (Papp) for both the absorptive direction (AP→BL) and the efflux direction (BL→AP) studies were calculated according to the following:(3) Papp=dQ/dt/A×C0, where dQ/dt (μg·min^−1) is the drug permeation rate, A (cm^2) is the filter surface area, and C0 (μg·mL^−1) is the initial concentration in the donor chamber at t = 0 min.
(§6) The efflux ratio (γ) was calculated with the following equation:(4) γ=PappBL-AP/PappAP-BL.

[2] = test system: Caco-2 cells monolayer; assay: as above; assay type: in vitro ADME, Human; conditions: for efflux ratio γ (Papp BL-AP / Papp AP-BL): GM without inhibitor; for decrement of absorbance percentage: GM (GE combined with MP) versus GE sample; for efflux Papp relative to absorptive Papp: GM sample
Procedure: as §1, §2, §3, §4, §5, §6

[3] = molecular target: T1, P-gp (Homo sapiens, UniProt P08183); assay: Inhibition transport study: GM with verapamil (P-gp inhibitor) across Caco-2 cells monolayer; assay type: in vitro ADME; conditions: for Papp A→B at 4 h / Papp B→A at 4 h / efflux ratio at 4 h / Papp A→B / Papp B→A / efflux ratio: human, Caco-2; for Papp A→B at 4 h / Papp B→A at 4 h / Papp A→B / Papp B→A: GM + verapamil (50 μmol), mean ± SEM, n = 3; for Papp A→B at 4 h / Papp A→B: apical-to-basolateral; for Papp B→A at 4 h / Papp B→A: basolateral-to-apical; for efflux ratio at 4 h / efflux ratio: GM + verapamil, read-out: efflux ratio γ (Papp BL-AP / Papp AP-BL); for decrease of efflux ratio γ: GM + verapamil compared with GM
T1 construct: endogenous in cells; host or cells: Caco-2 cells (cell bank of Chinese Academy of Sciences)
Procedure: (§7) As efflux transporters (P-gp and MRP2) are expressed on the apical side of Caco-2 cells, the absorption or efflux transport of indole alkaloids across this model was investigated in the presence of efflux transporters inhibitors. A selective P-gp inhibitor, verapamil (50 μmol), was added to GM. 10 μmol ciclosporin (a P-gp and MRP2 inhibitor) was also added to GM. The control group was set as well. After the preincubation, the different mixes were performed in Caco-2 cells monolayer. Transport studies were undertaken as mentioned above in the absorptive direction (AP-BL) and the efflux direction (BL-AP), separately. The samples were taken at 0, 1, 2, 3, and 4 h for LC-MS/MS analysis. The absorption and efflux transport apparent permeability (Papp) of indole alkaloids were determined.
as §5, §6
(§8) The γ values are used to assess the effect of efflux transporters on the test compounds in the presence and absence of efflux transporters inhibitors.

[4] = test system: P-gp and MRP2; assay: Inhibition transport study: GM with ciclosporin (P-gp and MRP2 inhibitor) across Caco-2 cells monolayer; assay type: in vitro ADME, Human; conditions: for Papp A→B at 4 h / Papp B→A at 4 h / efflux ratio at 4 h / Papp A→B / Papp B→A / efflux ratio: human, Caco-2; for Papp A→B at 4 h / Papp B→A at 4 h / Papp A→B / Papp B→A: GM + ciclosporin (10 μmol), mean ± SEM, n = 3; for Papp A→B at 4 h / Papp A→B: apical-to-basolateral; for Papp B→A at 4 h / Papp B→A: basolateral-to-apical; for efflux ratio at 4 h / efflux ratio: GM + ciclosporin, read-out: efflux ratio γ (Papp BL-AP / Papp AP-BL); for decrease of efflux ratio γ: GM + ciclosporin compared with GM
Procedure: as §7, §5, §6, §8

T1 sequence (P08183 whole entry): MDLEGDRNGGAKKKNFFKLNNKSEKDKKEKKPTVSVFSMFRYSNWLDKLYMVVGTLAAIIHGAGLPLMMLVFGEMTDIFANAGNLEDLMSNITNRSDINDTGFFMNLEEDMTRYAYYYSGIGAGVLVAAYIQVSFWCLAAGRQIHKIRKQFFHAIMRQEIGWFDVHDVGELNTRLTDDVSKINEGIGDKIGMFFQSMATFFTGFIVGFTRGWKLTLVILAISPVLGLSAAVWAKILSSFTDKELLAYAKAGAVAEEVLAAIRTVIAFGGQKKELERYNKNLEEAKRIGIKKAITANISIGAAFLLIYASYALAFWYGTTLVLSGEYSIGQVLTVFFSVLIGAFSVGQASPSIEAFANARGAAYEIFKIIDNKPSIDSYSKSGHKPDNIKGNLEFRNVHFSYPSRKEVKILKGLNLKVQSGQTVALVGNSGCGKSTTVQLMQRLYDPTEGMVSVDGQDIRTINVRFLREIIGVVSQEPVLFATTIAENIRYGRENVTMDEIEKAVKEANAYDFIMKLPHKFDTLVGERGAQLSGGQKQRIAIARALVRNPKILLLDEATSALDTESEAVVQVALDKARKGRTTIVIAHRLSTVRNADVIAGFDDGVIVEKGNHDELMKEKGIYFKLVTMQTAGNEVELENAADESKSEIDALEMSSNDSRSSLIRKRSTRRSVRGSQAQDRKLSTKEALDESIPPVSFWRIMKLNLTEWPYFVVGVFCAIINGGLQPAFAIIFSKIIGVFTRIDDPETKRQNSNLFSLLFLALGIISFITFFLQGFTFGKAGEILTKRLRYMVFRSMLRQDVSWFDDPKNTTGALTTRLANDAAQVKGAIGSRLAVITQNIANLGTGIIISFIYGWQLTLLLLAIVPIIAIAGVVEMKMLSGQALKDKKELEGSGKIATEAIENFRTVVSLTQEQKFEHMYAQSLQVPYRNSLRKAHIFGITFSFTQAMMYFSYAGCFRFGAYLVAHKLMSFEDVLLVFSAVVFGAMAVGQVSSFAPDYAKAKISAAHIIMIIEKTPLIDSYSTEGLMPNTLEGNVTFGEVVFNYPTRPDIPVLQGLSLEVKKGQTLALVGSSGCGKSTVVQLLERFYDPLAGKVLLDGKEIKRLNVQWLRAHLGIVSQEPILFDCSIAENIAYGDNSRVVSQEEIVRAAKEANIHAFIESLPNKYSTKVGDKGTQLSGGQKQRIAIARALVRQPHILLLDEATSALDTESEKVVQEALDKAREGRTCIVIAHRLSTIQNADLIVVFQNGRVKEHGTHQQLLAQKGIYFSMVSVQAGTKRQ

| Structure (SMILES) | efflux ratio at 4 h [1] | Papp A→B at 4 h [1] [×10⁻⁶ cm/s] | Papp B→A at 4 h [1] [×10⁻⁶ cm/s] | efflux ratio γ (Papp BL-AP / Papp AP-BL) [2] | Papp A→B at 4 h [3] [×10⁻⁶ cm/s] | Papp B→A at 4 h [3] [×10⁻⁶ cm/s] | efflux ratio at 4 h [3] | decrement of absorbance percentage ([2]; apical to basolateral) | efflux Papp relative to absorptive Papp [2] | decrease of efflux ratio γ [3] [%] | decrease of efflux ratio γ [4] [%] | efflux ratio [1] | Papp A→B [1] [×10⁻⁶ cm/s] | Papp B→A [1] [×10⁻⁶ cm/s] | Papp A→B [3] [×10⁻⁶ cm/s] | Papp B→A [3] [×10⁻⁶ cm/s] | efflux ratio [3] | Papp A→B [4] [×10⁻⁶ cm/s] | Papp B→A [4] [×10⁻⁶ cm/s] | efflux ratio [4] | further results |
| --- | --- | --- | --- | --- | --- | --- | --- | --- | --- | --- | --- | --- | --- | --- | --- | --- | --- | --- | --- | --- | --- |
| C=C[C@]12CN(C)[C@@H]3[C@H]4CO[C@H](C[C@H]41)[C@]1(C(=O)Nc4ccccc41)[C@@H]32 [Gelsemine, gelsemine] | ~1 | 6.83 ± 2.64 | 7.33 ± 2.77 | 1.07 | 30.3 ± 7.45 | 33.2 ± 8 | 1.09 |  |  |  |  |  |  |  |  |  |  |  |  |  | Papp A→B at 4 h [4]: 35.6 ± 7.63 ×10⁻⁶ cm/s; Papp B→A at 4 h [4]: 39.1 ± 8.91 ×10⁻⁶ cm/s; efflux ratio at 4 h [4]: 1.1 |
| CCC1=N[C@H]2C[C@@]3(C(=O)N(OC)c4ccccc43)[C@H]3C[C@@H]1[C@@H]2CO3 [Gelsenicine, gelsenicine] | > 2 | 2.8 ± 0.11 | 6.69 ± 1.35 | 2.39 | 86.6 ± 15.8 | 122 ± 26.1 | 1.4 | about 12% | approximately 2.0 times | 41.42 | 40.59 |  |  |  |  |  |  |  |  |  | Papp A→B at 4 h [4]: 101 ± 28.4 ×10⁻⁶ cm/s; Papp B→A at 4 h [4]: 143 ± 10.8 ×10⁻⁶ cm/s; efflux ratio at 4 h [4]: 1.42 |
| C=CC12CN(C)C3C4COC(CC41)C1(C(=O)N(OC)c4ccccc41)C32 (centres unmarked) [Gelsevirine, gelsevirine] |  |  |  | 2.00 |  |  |  | over 3% | approximately 2.0 times | 36.00 | 34.00 | > 2 | 6.33 ± 2.31 | 12.7 ± 2.67 | 392 ± 58.1 | 503 ± 93 | 1.28 | 464 ± 93.8 | 614 ± 56.8 | 1.32 |  |
| CCC1=NC2CC3(C(=O)N(OC)c4ccccc43)C3OCC2C1C3O (centres unmarked) [Humantenidine, humantenidine] |  |  |  | 2.93 |  |  |  |  | approximately 2.0 times | 43.69 | 42.32 | > 2 | 0.14 ± 0.044 | 0.41 ± 0.05 | 3.14 ± 1.19 | 6.17 ± 0.57 | 1.65 | 4.48 ± 1.06 | 7.57 ± 0.36 | 1.69 | absorbance percentage, rank among all indole alkaloids ([2]; GE sample, apical to basolateral, during 4 h): highest |
| C/C=C1\CN(C)[C@H]2C[C@@]3(C(=O)N(OC)c4ccccc43)[C@H]3C[C@@H]1[C@@H]2CO3 [Humantenine, humantenine] |  |  |  |  |  |  |  | about 12% |  | 8.90 | 15.07 | 1.46 | 6.93 ± 1.59 | 9.87 ± 1.75 | 437 ± 71.2 | 580 ± 109 | 1.33 | 515 ± 101 | 637 ± 90.1 | 1.24 |  |
| C=C[C@@]12CN(C)[C@H]3C[C@]14C(=Nc1ccccc14)[C@H]1C[C@@H]2[C@@H]3CO1 [Koumine, koumine] |  |  |  | 1.13 |  |  |  |  |  |  |  | ~1 | 11.8 ± 4.01 | 13.4 ± 3.84 | 348 ± 67.4 | 416 ± 80.5 | 1.19 | 440 ± 93.3 | 524 ± 91.5 | 1.19 |  |
